Experimental data: the NIST ThermoML archive (doi:10.1016/j.jct.2012.05.023)

Assay: xn = mol fraction of the nth substance listed
Conditions: 101.3 kPa, Liquid; for speed of sound: Sing-around technique in a fixed-path interferometer; for mass density: Vibrating tube method

c1ccc2c(c1)CCCC2 [1,2,3,4-tetrahydronaphthalene] + CCCCCCCCCCCC
Conditions | mass density, 293.15 K [kg/m3] | mass density, 303.15 K [kg/m3] | mass density, 313.15 K [kg/m3] | mass density, 323.15 K [kg/m3] | speed of sound, 293.15 K [m/s] | speed of sound, 303.15 K [m/s] | speed of sound, 313.15 K [m/s] | speed of sound, 323.15 K [m/s] | speed of sound, 333.15 K [m/s]
x1 = 0.1021 | 763.04 | 755.74 | 748.42 | 741.07 | 1308.1 | 1269.8 | 1232.1 | 1194.9 | 1158.3
x1 = 0.2015 | 777.99 | 770.65 | 763.25 | 755.85 | 1318.1 | 1280 | 1242.2 | 1205.4 | 1168.6
x1 = 0.307 | 795.31 | 787.92 | 780.5 | 773.06 | 1331.6 | 1293.4 | 1255.9 | 1218.9 | 1182.6
x1 = 0.3998 | 811.97 | 804.53 | 797.07 | 789.61 | 1344 | 1306 | 1268.5 | 1231.6 | 1195.2
x1 = 0.4985 | 831.41 | 823.91 | 816.39 | 808.85 | 1359.7 | 1321.7 | 1284.3 | 1247.4 | 1211
x1 = 0.5961 | 852.66 | 845.1 | 837.52 | 829.89 | 1377 | 1339 | 1301.5 | 1264.5 | 1228.2
x1 = 0.7019 | 878.22 | 870.59 | 862.94 | 855.26 | 1399.4 | 1361.2 | 1323.6 | 1286.7 | 1250.3
x1 = 0.8012 | 905.15 | 897.44 | 889.71 | 881.98 | 1423.8 | 1385.4 | 1347.6 | 1310.5 | 1274
x1 = 0.8998 | 935.03 | 927.23 | 919.41 | 911.58 | 1453.4 | 1414.7 | 1376.6 | 1339.2 | 1302.5
x1 = 1 | 969.52 | 961.59 | 953.66 | 945.72 | 1489.5 | 1450.1 | 1411.5 | 1373.6 | 1336.4
